Experimental data: paper PMC10305181, “A VEGFB-Based Peptidomimetic Inhibits VEGFR2-Mediated PI3K/Akt/mTOR and PLCγ/ERK Signaling and Elicits Apoptotic, Antiangiogenic, and Antitumor Activities” (Pharmaceuticals, 2023)
Bridge positions count the residues as written; N and C are the ends. Peptide text beside a SMILES is read from it.

Tests used:
4T1 cells = assay: TUNEL assay, 4T1 cells; format: cell-based, murine; conditions: 0.40 μM, n = 3, p = 0.0002
Source text: Periodic boundary conditions were used, and bonds were restrained by applying the LINCS algorithm to their equilibrium position. Initial structures were solvated with three-point model water molecules in a cubic box of 1.0 nm to fully cover the protein system in water, following periodic boundary conditions (PBC). The produced system for each peptide was neutralized through the “genion tool” plugin of the GROMACS package by adding ions Na+ and Cl−. Then, the system was minimized for 50000 iterations using the steepest descent (SD) algorithm and using velocity rescaling (modiﬁed Berendsen) temperature coupling and Parrinello-Rahman pressure coupling methods, simulated under an isothermal-isobaric ensemble (NPT) for 5 ns at a constant temperature, the pressure of 300 K, and 1 atm, respectively. The NVT and NPT equilibration was carried out for 50000 steps. The minimization and equilibration procedures were executed, and finally, one system of the peptide was subjected to a 200 ns production run of MD simulations utilizing 2 fs as the time step and coordinates of all atoms were recorded in the form of .trr GROMACS trajectory ﬁle every 10 ps.
2 × 10^3 HUVE or 4T1 cells were cultured in DMEM and RPMI-1640 media, respectively, supplemented with 10% (v/v) FBS overnight. Then, the cells were incubated in the media supplemented with 5% FBS, with PBS or C-VGB3 (0.40 μM). […]

HUVECs = assay: tube formation assay on Matrigel, HUVECs; format: cell-based, human; conditions: 0.40 μM; 12 h; VEGF 20 ng·mL^−1; n = 3; p < 0.001
Method: Figure 4 Inhibition of EC proliferation and tubulogenesis by C-VGB3 through abrogation of VEGFR2-mediated signaling pathways. (A) MTT assay was performed to investigate C-VGB3 effect on the proliferation of ECs. C-VGB3 (0–0.91 μM) was used with (20 ng·mL^−1) or without VEGF. The control cells were treated with no peptide. After 24 and 48 h, the absorbance was measured at 570 nm utilizing an ELISA plate reader (Space Fax 2100, Awareness, Westport, CT, USA). Error bars indicate ± SEM. n = 3; * p = 0.02, ** p = 0.001, *** and ### p = 0.0001, **** and #### p < 0.0001, ns = not significant; one-way ANOVA. (B) The anti-tubulogenesis effect of C-VGB3 in VEGF (20 ng·mL^−1)-induced HUVECs. Image analysis performed by Wimasis image analysis software is illustrated in the bottom panel. Error bars indicate ±SEM. n = 3; *** 0.0004 ≤ p ≤ 0.0001; unpaired Student’s t-test. To evaluate the mechanism by which C-VGB3 diminished cell proliferation and tube formation, Western blot analysis was performed for HUVECs. […] Error bars indicate ± SEM. n = 3; * p = 0.02, ** p = 0.001, *** p = 0.0001, **** p < 0.0001; one-way ANOVA. […] Error bars indicate ± SEM. n = 3; * p = 0.02, ** p = 0.001, **** p < 0.0001; one-way ANOVA.
Tube formation of HUVECs was assayed on the Matrigel. After pre-labeling with PKH26 cell tracker (Sigma-Aldrich, St. Louis, MO, USA) HUVECs were plated into 24-well plates pre-coated with Matrigel Basement Membrane Matrix (BD Biosciences, San Jose, CA, USA). C-VGB3 (0.40 μM) was added to the medium, and images were manually captured after 12 h using an Olympus BX-51 fluorescence microscope. Quantitative analyses were performed by Wimasis online software.

## CC(C)C[C@@H]1NC(=O)CNC(=O)[C@H](CC(=O)O)NC(=O)[C@H](CC(=O)O)NC(=O)[C@@H]2CCCN2C(=O)[C@@H]2CCCN2C(=O)[C@H](CCCNC(=N)N)NC(=O)[C@@H](NC(=O)[C@@H](N)CCC(=O)O)CSSC[C@@H](C(=O)O)NC1=O [C-VGB3] (H-ECRPPDDGLC-OH; disulfide 2-10)
4T1 cells
  TUNEL fluorescent labeling: fluorescent-labeled more than control cells
HUVECs
  decrease in tube branching points: 81.46%
  decrease in tube length: 44.37%
  decrease in tube numbers: 58.64%
